{"source": "ChEMBL document CHEMBL2010733", "about": "“Amphilectane diterpenes from Salvia sclarea: biosynthetic considerations” (J Nat Prod, 2012)", "system": "Radical scavenging activity", "assay": "Antioxidant activity assessed as DPPH radical scavenging activity", "format": "functional", "note": "Active and inactive are the calls of the source. The rule behind the calls is not given here.", "data": [{"smiles": "CC(C)=C[C@H]1C=C(C)[C@@H]2CC[C@H](C)[C@@]23CCC(C)=C[C@@H]13", "note": "(relative stereo)", "values": [{"measurement": "Activity", "value": "inactive"}]}, {"smiles": "CC(C)=C[C@H]1C=C(C)[C@H]2CC[C@H](C)[C@@H]3CC=C(C)[C@@H]1[C@@H]32", "note": "(relative stereo)", "values": [{"measurement": "Activity", "value": "inactive"}]}]}
